Experimental data taken from patent publication US20150203471A1, “METHODS FOR IMPROVING CHICKEN PRODUCTION” (ELI LILLY AND COMPANY, priority 2012, published 2015).
Where a name gives a salt, the structure may show the parent alone. Read-outs that look alike come from different tables or passages of the source.

Tested on: male broilers
Test: Study 1: growth performance and carcass responses of male broilers, compounds in feed vs positive and negative controls
Assay type: in vivo, chicken
Details: 14 days; for change in vivo at 15 ppm, 15 µg/mL: Gallus gallus, feed or water, 336 h
Text: An objective of this study is to evaluate growth performance and carcass responses of male broilers by comparing non-zero dosages of the above compounds versus a positive control (Compound 1) and negative controls. Table 1 sets out the specific treatment groups:
The route of administration is oral, with the compounds mixed in feed, and provided Ad libitum. The age of the chickens of Day 1 of the study is 35 days old. Body weights are taken on the following days: • 1) Study Day 1 (pen weight) • 2) Study Day 14 (individual animal weights) • 3) Study Day 15 (individual weights on selected animals) • 4) Study Day 16 (blocks 1-5) • 5) Study Day 17 (blocks 6-10).
Following collection of final weights, the following processing data is collected (hot weights) on individual animals: • 1) Live weight • 2) Hot carcass weight • 3) Fat pad weight • 4) Hot breast muscle weight • 5) Hot bone in leg weight

[1] = 15 ppm in feed ad libitum, male broilers 35 days old at Day 1, percent change from negative control, * in cell = not significant vs negative control, read-out: ADG % inc.
[2] = 15 ppm in feed ad libitum, male broilers, percent change from negative control, * in cell = not significant, read-out: Hot carcass wt % inc.
[3] = 15 ppm in feed ad libitum, male broilers, percent change from negative control, * in cell = not significant

## CC(C)(Cc1ccc(Oc2ccc(C(=O)O)cc2)cc1)NC[C@H](O)COc1cccc(O)c1 (stereo in doubt) [Compound 8, 4-[4-(2-{[2-hydroxy-3-(3-hydroxyphenoxy)propyl]amino}-2-methylpropyl)phenoxy]benzoic acid dihydrochloride]
[1]
  change in vivo at 15 ppm, 15 µg/mL: -0.4%
[2]
  change in vivo at 15 ppm, 15 µg/mL: 0.8%

## CC(C)(Cc1ccc(Oc2ncccc2C#N)cc1)NC[C@H](O)COc1ccccc1-c1cccs1 [Compound 1, 2-[4-(2-{[(2S)-2-hydroxy-3-(2-thiophen-2-ylphenoxy)propyl]amino}-2-methylpropyl)phenoxy]pyridine-3-carbonitrile, reference compound]
[3]
  Ave daily live wt gain % inc.: 4.0%
  Breast wt % inc.: 3.5* %
  Feed intake % inc.: 2.7%
  Gain effic % inc.: 1.6* %
  Leg wt % inc.: 1.2* %
15 ppm in feed ad libitum, male broilers, percent decrease from negative control, * in cell = not significant
  Fat Pad wt % dec.: 9.8* %
15 ppm in feed, vs negative control
  growth performance parameters improved (in words): improved ADG, feed intake, average daily live weight gain only
[1]
  change in vivo at 15 ppm, 15 µg/mL: 4.4%
[2]
  change in vivo at 15 ppm, 15 µg/mL: 2.4%

## CC(C)(Cc1ccc(Oc2ccc(S(C)(=O)=O)cc2)cc1)NC[C@H](O)COc1cccc2[nH]c(=S)[nH]c12 [Compound 3, 4-({(2S)-3-[(1,1-dimethyl-2-{4-[4-(methylsulfonyl)phenoxy]phenyl}ethyl)amino]-2-hydroxypropyl}oxy)-1,3-dihydro-2H-benzimidazole-2-thione]
[1]
  change in vivo at 15 ppm, 15 µg/mL: 1.6%
[2]
  change in vivo at 15 ppm, 15 µg/mL: 2.7%

## CC(C)(Cc1ccc(Oc2ncccc2C(N)=O)cc1)NC[C@H](O)COc1ccccc1-c1cc2ccccc2[nH]1 [Compound 4, 2-{4-[2-({(2S)-2-hydroxy-3-[2-(1H-indol-2-yl)phenoxy]propyl}amino)-2-methylpropyl]phenoxy}pyridine-3-carboxamide]
[1]
  change in vivo at 15 ppm, 15 µg/mL: -1.6%
[2]
  change in vivo at 15 ppm, 15 µg/mL: 0.3%

## CC(C)(Cc1ccc(Oc2ccc(C(=O)N3CCOCC3)cn2)cc1)NC[C@H](O)COc1cccc2[nH]ccc12 [Compound 6, (2S)-1-{[1,1-dimethyl-2-(4-{[5-(morpholin-4-ylcarbonyl)pyridin-2-yl]oxy}phenyl)ethyl]amino}-3-(1H-indol-4-yloxy)propan-2-ol]
[1]
  change in vivo at 15 ppm, 15 µg/mL: 3.9%
[2]
  change in vivo at 15 ppm, 15 µg/mL: 3.8%

## CC(C)(Cc1ccc(Oc2ccc(S(C)(=O)=O)cc2S(C)(=O)=O)cc1)NC[C@H](O)COc1cccc2[nH]c(C(N)=O)cc12 [Compound 7, 4-({(2S)-3-[(2-{4-[2,4-bis(methylsulfonyl)phenoxy]phenyl}-1,1-dimethylethyl)amino]-2-hydroxypropyl}oxy)-1H-indole-2-carboxamide]
[1]
  change in vivo at 15 ppm, 15 µg/mL: 2%
[2]
  change in vivo at 15 ppm, 15 µg/mL: 1.2%
